Results on 16 compounds are retold here after paper PMC8621770, “New Compounds with Bioisosteric Replacement of Classic Choline Kinase Inhibitors Show Potent Antiplasmodial Activity” (Pharmaceutics, 2021).

Molecules are shown by their SMILES. Where two headings read alike, the source gives them in different places.

Data set [1] has as its system P. falciparum strain 3D7. On the set-up: method as in PMID 27616047, PMID 29880399, PMID 25089811. The settings on record: reference compounds; read-out: IC50 a (In vitro IC50 values against P. falciparum); cited from earlier work.
Data set [2] has as its target T1, PfCK (Plasmodium falciparum, UniProt Q8IM71).
T1 construct: A truncated form of PfCK (Δ79-440) featuring an N-terminal 6× His-tag; 6xHis (N); host or cells: Escherichia coli BL21 (DE3) Star
Conditions: reference compounds, cited from earlier work.

The subject of data set [3] is P. falciparum strain 3D7. As to the kind of experiment: Antimalarial activity, P. falciparum lactate dehydrogenase growth inhibition assay. The class given is cell-based, Plasmodium falciparum. The settings on record: for IC50: Plasmodium falciparum; for fold difference in antimalarial activity, bipyridinyl vs biphenylic counterparts: Fg-13 and Fg-17 vs Fg-14 and Fa-21. How it is done:
Parasites of the P. falciparum strain 3D7 were grown in fresh group 0 positive human erythrocytes, obtained from the Centro Regional de Transfusion Sanguínea-SAS (Granada, Spain) and suspended at 5% haematocrit in RPMI 1640 containing 2% human serum, 0.2% NaHCO3, 0.5% Albumax II, 150 μM hypoxanthine, and […] gentamicin. Flasks were incubated at 37 °C, under 5% CO2 and 95% air mixture. […] The stock culture was then diluted with complete medium and non-parasitized erythrocytes to yield a haematocrit of 2% and parasitemia of 0.25%. Stock solutions of the test drugs were prepared at an initial concentration of 200 mM in DMSO, serially diluted and dispensed into triplicate in 96-well plates to yield final concentrations ranging from 0.0039 to 2 μM. The final well volume was 200 μL with a final concentration of DMSO 0.001%. Each plate also included positive growth controls, where only medium were added, and negative growth controls with 100 nM of chloroquine. […] A multidrop dispenser was used to add 50 μL of synchronized parasite culture per well. After 72 h of growth in presence of test compounds, the plates were stored frozen at −20 °C for at least 24 h. Next, they were thawed at room temperature. Parasite growth inhibition assays and IC50 determinations were carried out following the P. falciparum lactate dehydrogenase assay where parasite viability is quantified by measuring LDH activity upon APAD+ addition, a cofactor that is specific to the Plasmodium enzyme. To evaluate LDH activity, 140 μL of freshly made reaction mix, containing 143 mM sodium L-lactate, 143 μM APAD, 178.75 μM NBT, 1 U/mL diaphorase, 0.7% Tween 20 and 100 mM Tris-HCl (pH 8.0) were dispensed into plates. After 10 min of incubation in the dark at room temperature, absorbance was measured at 630 nm with a vmax precision multiwell plate reader from Molecular Devices, by using the accompanying SOFT maxPro software for analysis.

In data set [4] the target is T1, PfCK. The data set is described as follows: Spectrophotometric coupled enzymatic assay for PfCK activity (substrate choline). The format is biochemical. Conditions: for remaining activity at 25 µM: read-out: PfCK Fractional Activity at 25 µM; for IC50: IC50 PfCK b (compound concentration required to inhibit PfCK enzyme by 50%), substrate choline 4 mM, ATP 2 mM. The method, then:
A truncated form of PfCK (Δ79-440) featuring an N-terminal 6× His-tag was purchased from Genescript (Piscataway, NJ, USA), cloned into a pET-28a vector and transformed into Escherichia coli BL21 (DE3) Star cells (Invitrogen, Carlsbad, CA, USA). The transformed bacteria were cultured in Luria-Bertani (LB) medium at 37 °C until OD600 = 0.6 and the expression was induced with 1 mM isopropyl β-D-1-thiogalactopyranoside (IPTG). The cell culture was grown overnight at 20 °C and 180 rpm. Cells were pelleted by centrifugation at 10,000 rpm, resuspended in 50 mM Tris/HCl pH 7.5, 500 mM NaCl, 0.2 mM phenylmethylsulphonyl fluoride (PMSF, Sigma Aldrich, St. Luis, MO, USA), DNase (Sigma Aldrich, St. Luis, MO, USA), 0.5 mM β-mercaptoethanol (Sigma Aldrich, St. Luis, MO, USA) and sonicated. Separation of the soluble from the insoluble fraction was obtained by centrifugation at 15,000 rpm and 4 °C. The target enzyme was purified by a two-step purification protocol. In the first step, the cell lysate was incubated for 45 min with Ni-NTA resin (Qiagen, Venlo, The Netherlands) in a gravity column. Then, the column was washed with 40 column volumes (CV) of 50 mM Tris/HCl pH 7.5, 300 mM NaCl, 10 mM imidazole and 1 CV of 50 mM Tris/HCl pH 7.5, 300 mM NaCl, 40 mM imidazole. Finally, the His-tagged enzyme was eluted from the column using a 50 mM Tris/HCl pH 7.5, 300 mM NaCl, 400 mM imidazole buffer. A subsequent size-exclusion chromatography step was implemented to further polish the sample using a HiPrep 26/60 Sephacryl 100 HR column (GE Healthcare, Little Chalfont, Buckinghamshire, UK) previously equilibrated with 20 mM Tris/HCl pH 7.5, 150 mM NaCl buffer. This second purification step afforded a pure protein sample. The protein production yield was estimated to be nearly 2.5 mg of recombinant enzyme per liter of bacterial culture.
A spectrophotometric 96-well plate assay for PfCK activity was established based on an assay previously described. The reaction mix was composed as follows: 100 mM Tris/HCl pH 7.5, 100 mM KCl, 10 mM MgCl2, 0.5 mM phosphoenolpyruvate, 0.25 mM NADH, 4 U of pyruvate kinase, 5 U lactate dehydrogenase, 2 mM ATP, 4 mM choline chloride and different concentrations of the selected compounds. All the necessary compounds for the assay were purchased from Sigma Aldrich (St. Luis, MO, USA) and the final assay volume was 200 μL. The enzymatic reaction was initiated by the addition of the enzyme at less than 10 nM concentration and the reaction rates were measured by monitoring the decrease in the absorbance at 340 nm for 20 min at room temperature using a Spark10M instrument (Tecan). Finally, the IC50 values for each compound were determined by plotting the enzyme fractional activity (f.a.) against the logarithm of compound concentration (log[I]). Curve-fitting was performed with a dose-response curve from Origin (OriginLab Corporation, Northampton, MA, USA), using the following equation: f.a.=1/1+10^logIC50−logI
All data points were collected in triplicate and the final dose-response curves were plotted with MATLAB (R2018a (9.4.0.813654), 2018, MathWorks, Natick, MA, USA). See curves in Figure S1 in Supplementary Materials.

Setting [5] is: Erythrocyte, P. falciparum 3D7 in human erythrocytes, 72 h, LDH readout, read-out: IC50 a (In vitro IC50 values against P. falciparum).

T1 sequence (Q8IM71 entry or part of it): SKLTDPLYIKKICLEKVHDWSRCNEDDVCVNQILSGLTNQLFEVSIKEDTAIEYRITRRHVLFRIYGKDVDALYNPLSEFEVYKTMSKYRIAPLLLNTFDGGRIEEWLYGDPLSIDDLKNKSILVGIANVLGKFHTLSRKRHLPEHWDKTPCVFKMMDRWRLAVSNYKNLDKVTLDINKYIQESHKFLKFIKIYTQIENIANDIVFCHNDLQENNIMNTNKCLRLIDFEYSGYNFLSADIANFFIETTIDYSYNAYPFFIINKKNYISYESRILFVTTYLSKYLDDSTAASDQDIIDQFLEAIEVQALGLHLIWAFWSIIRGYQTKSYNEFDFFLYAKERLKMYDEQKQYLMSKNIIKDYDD

As for `CN(C)c1cc[n+](Cc2ccc(OCCOc3ccc(C[n+]4ccc(N(C)C)cc4)cc3)cc2)cc1` [10a], the IC50 in the data set with P. falciparum strain 3D7 [1] was 16 ± 1 nM. Also, the “inhibition of PfCK depending on substrate (in words)” value at PfCK [2] (choline kinase or ethanolamine kinase activity) is recorded as “no inhibition of the enzyme in its choline kinase or ethanolamine kinase activity is observed”.

For the compound `Clc1ccc2c(N3CCCCCC3)cc[n+](Cc3ccc(OCCOc4ccc(C[n+]5ccc(N6CCCCCC6)c6ccc(Cl)cc65)cc4)cc3)c2c1` [10k], the values for the IC50 in the data set on P. falciparum strain 3D7 [1] and at PfCK [2] (read-out: IC50 PfCK b (compound concentration required to inhibit PfCK enzyme by 50%)) were 35 ± 4 nM and 10900 ± 124 nM, respectively.

With `CN(C)c1cc[n+](Cc2ccc(-c3ccc(C[n+]4ccc(N(C)c5ccc(Cl)cc5)cc4)cc3)cc2)cc1` [BR-31], in the data set with P. falciparum strain 3D7 [1], the IC50 is 7 ± 0.6 nM.

Regarding `CN(C)c1cc[n+](Cc2ccc(CCCCc3ccc(C[n+]4ccc(N(C)c5ccc(Cl)cc5)cc4)cc3)cc2)cc1` [BR-33], the IC50 in the data set on P. falciparum strain 3D7 [1] was 45 ± 3 nM.

`[Br-].[Br-].c1cc2c(N3CCCCCC3)nc[n+](Cc3ccc(CCCCc4ccc(C[n+]5cnc(N6CCCCCC6)c6ccsc65)cc4)cc3)c2s1` [Ff-35, (1,1’((butane1,4diylbis(4,1phenylene))bis(methylene))bis(4-(azepan-1-yl)thieno[2,3-d]pyrimidin-1-ium)) bromide] returned a melting point of 117 to 119 °C. In addition, the IC50 in the data set on P. falciparum strain 3D7 [3] (setting [5]) was determined as 48.4 nM. Besides, the remaining activity at 25 µM on PfCK [4] is 57.6 ± 12.3%.

Compound `[Br-].[Br-].c1cc2c(s1)c(N1CCCC1)cc[n+]2Cc1ccc(CCc2ccc(C[n+]3ccc(N4CCCC4)c4sccc43)cc2)cc1` [Fg-11, 4,4’-((ethane-1,2-diylbis(4,1-phenylene))bis(methylene))bis(7-(pyrrolidin-1-yl)thieno[3,2-b]pyridin-4-ium) bromide] showed a melting point of 253 to 255 °C. In addition, in the data set on P. falciparum strain 3D7 [3] (setting [5]), the IC50 is 232 nM. Also, on PfCK [4], the IC50 was found to be 16500 ± 1430 nM and the remaining activity at 25 µM turned out to be 33 ± 1.48%.

`[Br-].[Br-].c1cc2c(N3CCCC3)nc[n+](Cc3ccc(-c4ccc(C[n+]5cnc(N6CCCC6)c6ccsc65)cn4)nc3)c2s1` [Fg-13, 1,1’-([2,2’-bipyridine]-5,5’-diylbis(methylene))bis(4-(pyrrolidin-1-yl)thieno[2,3-d]pyrimidin-1-ium) bromide] returned a melting point of 238 to 240 °C. Moreover, the “fold difference in antimalarial activity, bipyridinyl vs biphenylic counterparts” value in the data set on P. falciparum strain 3D7 [3] is above 10 fold. Besides, in the data set on P. falciparum strain 3D7 [3] (setting [5]), the IC50 was 143 nM. Further, the remaining activity at 25 µM on PfCK [4] is 99.1 ± 12%.

For `[Br-].[Br-].c1cc2c(N3CCCC3)nc[n+](Cc3ccc(CCc4ccc(C[n+]5cnc(N6CCCC6)c6ccsc65)cc4)cc3)c2s1` [Fg-15, 1,1’-((ethane-1,2-diylbis(4,1-phenylene))bis(methylene))bis(4-(pyrrolidin-1-yl)thieno[2,3-d]pyrimidin-1-ium) bromide], the melting point was in the range of 293 to 295 °C. For the same compound, the IC50 with P. falciparum strain 3D7 [3] (3D7, Erythrocyte, infected erythrocytes, P. falciparum, read-out: antimalarial activity (IC50), as given in the text) is around 11 nM. Also, the IC50 in the data set on P. falciparum strain 3D7 [3] (setting [5]) came out at 12.7 nM. Moreover, on PfCK [4], the remaining activity at 25 µM turned out to be 97.5 ± 9.22%.

The compound `[Br-].[Br-].c1cc2c(s1)c(N1CCCC1)nc[n+]2Cc1ccc(CCc2ccc(C[n+]3cnc(N4CCCC4)c4sccc43)cc2)cc1` [Fg-16, 1,1’-((ethane-1,2-diylbis(4,1-phenylene))bis(methylene))bis(4-(pyrrolidin-1-yl)thieno[3,2-d]pyrimidin-1-ium) bromide] displayed a melting point of 231 to 233 °C. Moreover, in the data set on P. falciparum strain 3D7 [3] (setting [5]), the IC50 turned out to be 20.6 nM. Further, on PfCK [4], the IC50 worked out at 26500 ± 2440 nM and the remaining activity at 25 µM worked out at 79.7 ± 10.3%.

`[Br-].[Br-].c1cc2c(s1)c(N1CCCC1)nc[n+]2Cc1ccc(-c2ccc(C[n+]3cnc(N4CCCC4)c4sccc43)cn2)nc1` [Fg-17, 1,1’-([2,2’-bipyridine]-5,5’-diylbis(methylene))bis(4-(pyrrolidin-1-yl)thieno[3,2-d]pyrimidin-1-ium) bromide]: the melting point was in the range of 330 to 332 °C. In addition, the “fold difference in antimalarial activity, bipyridinyl vs biphenylic counterparts” value in the data set with P. falciparum strain 3D7 [3] is above 10 fold. In addition, the IC50 in the data set on P. falciparum strain 3D7 [3] (setting [5]) was 227 nM. In addition, on PfCK [4], the remaining activity at 25 µM stood at 50.3 ± 7.88%.

Consider `[Br-].[Br-].c1cc2c(N3CCCCCC3)nc[n+](Cc3ccc(-c4ccc(C[n+]5cnc(N6CCCCCC6)c6ccsc65)cn4)nc3)c2s1` [Fg-20, 1,1’-([2,2’-bipyridine]-5,5’-diylbis(methylene))bis(4-(azepan-1-yl)thieno[2,3-d]pyrimidin-1-ium) bromide], for which the melting point lay within 289 to 291 °C. Besides, the IC50 in the data set with P. falciparum strain 3D7 [3] (setting [5]) is 97.6 nM. On PfCK [4], the remaining activity at 25 µM was 96.6 ± 13.1%.

`[Br-].[Br-].c1cc2c(N3CCCCC3)nc[n+](Cc3ccc(CCc4ccc(C[n+]5cnc(N6CCCCC6)c6ccsc65)cc4)cc3)c2s1` [Fg-31, 1,1’-((ethane-1,2-diylbis(4,1-phenylene))bis(methylene))bis(4-(piperidin-1-yl)thieno[2,3-d]pyrimidin-1-ium) bromide]: the melting point fell in the range of 295 to 297 °C. Also, the IC50 in the data set with P. falciparum strain 3D7 [3] (setting [5]) was found to be 34.7 nM. Besides, the remaining activity at 25 µM at PfCK [4] was found to be 87.4 ± 2.2%.

`[Br-].[Br-].c1cc2c(N3CCCCC3)nc[n+](Cc3ccc(-c4ccc(C[n+]5cnc(N6CCCCC6)c6ccsc65)cn4)nc3)c2s1` [Fg-32, 1,1’-([2,2’-bipyridine]-5,5’-diylbis(methylene))bis(4-(piperidin-1-yl)thieno[2,3-d]pyrimidin-1-ium) bromide]: the melting point was 267 to 269 °C. Further, the IC50 in the data set on P. falciparum strain 3D7 [3] (setting [5]) was above 250 nM. Moreover, the remaining activity at 25 µM at PfCK [4] amounted to 83.8 ± 9.53%.

In the case of `C[N+]1(C)CCOC(O)(c2ccc(-c3ccc(C4(O)C[N+](C)(C)CCO4)cc3)cc2)C1` (centres unmarked) [HC-3], the IC50 with P. falciparum strain 3D7 [1] is above 50000 nM.

In the case of `CN(C)c1cc[n+](Cc2ccc(CCCCc3ccc(C[n+]4ccc(N(C)C)cc4)cc3)cc2)cc1` [MN58b], in the data set on P. falciparum strain 3D7 [1], the IC50 is 3.5 nM.

For the compound `C/[N+](c1ccc(Cl)cc1)=c1\ccn(Cc2ccc(-c3ccc(Cn4cc/c(=[N+](/C)c5ccc(Cl)cc5)c5ccccc54)cc3)cc2)c2ccccc12` [RSM-932A], in the data set on P. falciparum strain 3D7 [1], the IC50 was 26.5 nM.
